Reference: US20130210846A1, “USE OF NOVEL PAN-CDK INHIBITORS FOR TREATING TUMORS” (BAYER INTELLECTUAL PROPERTY GMBH, priority 2010, published 2013)

Assays:
HeLa-MaTu = assay: Proliferation assay HeLa-MaTu; type: cell-based, human; details: cervix carcinoma, 4 days, crystal violet
Description: (§1) Cultivated human tumor cells (originally obtained from ATCC, HeLa-MaTu and HeLa-MaTu-ADR, originally obtained from Epo GmbH, Berlin, Germany) were plated at a density of 1000 to 5000 cells/measuring point, depending on the growth rate of the cell line, in a 96-well multititer plate in 200 μl of growth medium (DMEM/HAMS F12, 2 mM L-glutamine, 10% fetal calf serum). After 24 hours the cells of one plate (zero-point plate) were stained with crystal violet (see below), whereas the medium of the other plates was replaced with fresh culture medium (200 μl), to which the test substances had been added at various concentrations (0 μM, and in the range 0.01-30 μM; the final concentration of the solvent dimethyl sulfoxide was 0.5%). The cells were incubated for 4 days in the presence of the test substances. Cellular proliferation was determined by staining the cells with crystal violet: the cells were fixed by adding 20 μl/measuring point of an 11% glutaraldehyde solution for 15 min at room temperature. After washing the fixed cells with water three times, the plates were dried at room temperature. The cells were stained by adding 100 μl/measuring point of a 0.1% crystal violet solution (pH adjusted to pH3 by adding acetic acid). After washing the stained cells with water three times, the plates were dried at room temperature. The dye was dissolved by adding 100 μl/measuring point of a 10% acetic acid solution. The extinction was determined photometrically at a wavelength of 595 nm. The percentage change in cell growth was calculated by standardization of the measured values to the extinction values of the zero-point plate (=0%) and the extinction of the untreated (0 μM) cells (=100%). The measured data were standardized to 0% inhibition (cell proliferation without inhibitor) and 100% inhibition (zero-point plate). The IC50 values were determined by means of a 4-parameter fit using the company's own software.
(§2) The substances were examined in the following cell lines which, in an exemplary manner, represent the stated indications: […]

DU145 = assay: Proliferation assay DU145; type: cell-based, human; details: DU145, prostate carcinoma, 4 days, crystal violet
Description: as §1, §2

HeLa-MaTu-ADR = assay: Proliferation assay HeLa-MaTu-ADR; type: cell-based, human; details: cervix carcinoma, 4 days, crystal violet
Description: as §1, §2

Caco-2 = assay: Proliferation assay Caco-2; type: cell-based, human; details: Caco-2, colon/rectum carcinoma, 4 days, crystal violet
Description: as §1, §2

MCF7 = assay: Proliferation assay MCF7; type: cell-based, human; details: MCF7, estrogen receptor-positive mamma carcinoma, 4 days, crystal violet
Description: as §1, §2

NCI-H460 = assay: Proliferation assay NCI-H460; type: cell-based, human; details: NCI-H460, non-small-cell bronchial carcinoma, 4 days, crystal violet
Description: as §1, §2

CDK1/CycB = biological target: T1, CDK1/CycB (Homo sapiens, UniProt P06493); assay: CDK1/CycB kinase assay (Assay 1); type: biochemical; details: 0.5 μM ATP, histon IIIS, 10 min 22° C.; read-out: CDK1/CycB (Assay 1) Concentration for half-maximal inhibition of the enzyme activity, IC50
T1 construct: purchased ProQinase GmbH, Freiburg, Germany; host or cells: baculovirus-infected insect cells (Sf9)
Description: Recombinant CDK1 and CycB-GST fusion proteins, purified from baculovirus-infected insect cells (Sf9), were purchased from ProQinase GmbH, Freiburg, Germany. The histon HIS used as kinase substrate is commercially available from Sigma.
CDK1/CycB (200 ng/measuring point) was incubated for 10 min at 22° C. in the presence of various concentrations of test substances (0 μM, and within the range 0.01-100 μM) in assay buffer [50 mM Tris/HCl pH8.0, 10 mM MgCl2, 0.1 mM Na ortho-vanadate, 1.0 mM dithiothreitol, 0.5 μM adenosine triphosphate (ATP), 10 μg/measuring point histon IIIS, 0.2 μCi/measuring point ^33P-gamma ATP, 0.05% NP40, 1.25% dimethyl sulfoxide]. The reaction was stopped by adding EDTA solution (250 mM, pH 8.0, 15 μl/measuring point).
(§3) From each reaction mixture, 15 μl were applied to P30 filter strips (from Wallac), and unincorporated ^33P-ATP was removed by washing the filter strips three times, for 10 min each time, in 0.5% phosphoric acid. After drying the filter strips for 1 hour at 70° C., the filter strips were covered with scintillator strips (MeltiLex™ A, from Wallac) and stoved for 1 hour at 90° C. The amount of incorporated ^33P (substrate phosphorylation) was determined by scintillation measurement in a gamma-radiation measuring instrument (Wallac). The measured data were standardized to 0% inhibition (enzyme reaction without inhibitor) and 100% inhibition (all assay components except enzyme). The IC50 values were determined by means of a 4-parameter fit using the company's own software.

CDK2/CycE = biological target: T2, CDK2/CycE (Homo sapiens, UniProt P24941); assay: CDK2/CycE kinase assay (Assay 2); type: biochemical; details: 0.5 μM ATP, histon IIIS, 10 min 22° C.; read-out: CDK2/CycE (Assay 2) Concentration for half-maximal inhibition of the enzyme activity, IC50
T2 construct: purchased ProQinase GmbH, Freiburg, Germany; host or cells: baculovirus-infected insect cells (Sf9)
Description: Recombinant CDK2 and CycE-GST fusion proteins, purified from baculovirus-infected insect cells (Sf9), were purchased from ProQinase GmbH, Freiburg, Germany. Histon HIS, used as kinase substrate, was purchased from Sigma.
The reaction was stopped by adding EDTA solution (250 mM, pH 8.0, 15 μl/measuring point).
as §3, with “μl was” for “μl were”, “(Wallac). […]” for “(Wallac). The measured data were standardized to 0% inhibition (enzyme reaction without inhibitor) and 100% inhibition (all assay components except enzyme).”

[1] = biological target: T3, VEGF receptor tyrosine kinase-2 (VEGF-R2) (Homo sapiens, UniProt P35968); assay: VEGF receptor-2 kinase assay (Assay 3); type: biochemical; details: 8 μM ATP, poly-(Glu4Tyr), 10 min 22° C.; read-out: VEGF-R2 (Assay 3) Concentration for half-maximal inhibition of the enzyme activity, IC50
T3 construct: GST; made in house; host or cells: baculovirus-infected insect cells (Sf9)
Description: Recombinant VEGF receptor tyrosine kinase-2 was purified as GST fusion protein from baculovirus-infected insect cells (Sf9). Poly-(Glu4Tyr), used as kinase substrate, was purchased from Sigma.
VEGF receptor tyrosine kinase (90 ng/measuring point) was incubated for 10 min at 22° C. in the presence of various concentrations of test substances (0 μM, and within the range 0.001-30 μM) in 30 μl assay buffer [40 mM Tris/HCl pH5.5, 10 mM MgCl2, 1 mM MnCl2, 3 μM Na ortho-vanadate, 1.0 mM dithiothreitol, 8 μM adenosine triphosphate (ATP), 0.96 μg/measuring point poly-(Glu4Tyr), 0.2 μCi/measuring point ^33P-gamma ATP, 1.4% dimethyl sulfoxide]. The reaction was stopped by adding EDTA solution (250 mM, pH 8.0, 15 μl/measuring point).
as §3, with “μl was” for “μl were”

HeLa = assay: Proliferation assay HeLa; type: cell-based; details: Homo sapiens, 96 h, cervix carcinoma, 4 days, crystal violet
Description: as §1, §2

HCT116 = assay: Proliferation assay HCT116; type: cell-based; details: Homo sapiens, HCT-116, 96 h; HCT116, colon/rectum carcinoma; 4 days, crystal violet
Description: as §1, §2

SW480 = assay: Proliferation assay SW480; type: cell-based; details: Homo sapiens, 96 h; SW480, colon/rectum carcinoma; 4 days, crystal violet
Description: as §1, §2

T3 sequence (P35968 20-1356, species assumed): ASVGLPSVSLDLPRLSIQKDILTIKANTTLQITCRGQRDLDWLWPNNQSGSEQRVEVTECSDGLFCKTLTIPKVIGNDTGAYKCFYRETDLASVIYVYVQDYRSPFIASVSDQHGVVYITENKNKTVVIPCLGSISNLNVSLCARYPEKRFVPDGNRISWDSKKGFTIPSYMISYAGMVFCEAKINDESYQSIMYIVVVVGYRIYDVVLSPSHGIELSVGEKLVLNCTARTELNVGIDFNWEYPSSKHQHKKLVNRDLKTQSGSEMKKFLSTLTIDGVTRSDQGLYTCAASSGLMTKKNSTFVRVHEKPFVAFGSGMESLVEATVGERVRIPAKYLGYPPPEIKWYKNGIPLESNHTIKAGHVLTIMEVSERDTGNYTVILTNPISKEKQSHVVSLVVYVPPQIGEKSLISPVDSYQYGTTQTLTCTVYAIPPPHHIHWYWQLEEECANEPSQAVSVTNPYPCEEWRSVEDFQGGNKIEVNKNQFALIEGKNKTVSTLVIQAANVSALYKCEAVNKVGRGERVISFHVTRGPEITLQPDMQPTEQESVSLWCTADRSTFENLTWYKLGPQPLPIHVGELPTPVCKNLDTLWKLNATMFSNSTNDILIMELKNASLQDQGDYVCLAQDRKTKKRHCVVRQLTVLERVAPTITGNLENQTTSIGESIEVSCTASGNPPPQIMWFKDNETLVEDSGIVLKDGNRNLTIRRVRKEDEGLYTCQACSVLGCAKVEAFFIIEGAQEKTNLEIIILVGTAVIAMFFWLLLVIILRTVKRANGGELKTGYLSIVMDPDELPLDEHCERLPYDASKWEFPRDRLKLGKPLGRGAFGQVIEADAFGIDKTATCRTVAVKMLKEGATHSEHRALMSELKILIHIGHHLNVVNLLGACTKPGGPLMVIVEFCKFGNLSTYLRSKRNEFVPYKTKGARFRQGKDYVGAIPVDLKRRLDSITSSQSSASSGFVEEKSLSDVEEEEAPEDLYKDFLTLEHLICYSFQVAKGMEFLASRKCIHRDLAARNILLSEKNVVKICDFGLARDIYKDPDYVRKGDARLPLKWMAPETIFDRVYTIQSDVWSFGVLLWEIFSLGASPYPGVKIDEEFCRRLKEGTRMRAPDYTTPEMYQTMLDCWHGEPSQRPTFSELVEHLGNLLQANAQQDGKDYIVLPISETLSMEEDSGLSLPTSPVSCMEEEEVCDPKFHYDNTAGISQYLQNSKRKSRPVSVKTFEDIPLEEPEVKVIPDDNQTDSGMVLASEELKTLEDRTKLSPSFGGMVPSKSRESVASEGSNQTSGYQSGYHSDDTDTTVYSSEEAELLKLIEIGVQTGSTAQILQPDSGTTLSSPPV
T1 sequence (P06493 whole entry): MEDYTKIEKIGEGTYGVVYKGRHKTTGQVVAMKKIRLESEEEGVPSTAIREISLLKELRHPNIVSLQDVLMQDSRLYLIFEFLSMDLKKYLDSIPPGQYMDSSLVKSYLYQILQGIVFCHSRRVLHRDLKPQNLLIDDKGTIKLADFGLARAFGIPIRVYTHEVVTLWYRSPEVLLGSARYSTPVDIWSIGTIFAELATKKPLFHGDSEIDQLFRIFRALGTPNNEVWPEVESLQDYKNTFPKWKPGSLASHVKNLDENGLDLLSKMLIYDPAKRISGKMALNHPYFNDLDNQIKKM
T1 sequence (P14635 whole entry partner): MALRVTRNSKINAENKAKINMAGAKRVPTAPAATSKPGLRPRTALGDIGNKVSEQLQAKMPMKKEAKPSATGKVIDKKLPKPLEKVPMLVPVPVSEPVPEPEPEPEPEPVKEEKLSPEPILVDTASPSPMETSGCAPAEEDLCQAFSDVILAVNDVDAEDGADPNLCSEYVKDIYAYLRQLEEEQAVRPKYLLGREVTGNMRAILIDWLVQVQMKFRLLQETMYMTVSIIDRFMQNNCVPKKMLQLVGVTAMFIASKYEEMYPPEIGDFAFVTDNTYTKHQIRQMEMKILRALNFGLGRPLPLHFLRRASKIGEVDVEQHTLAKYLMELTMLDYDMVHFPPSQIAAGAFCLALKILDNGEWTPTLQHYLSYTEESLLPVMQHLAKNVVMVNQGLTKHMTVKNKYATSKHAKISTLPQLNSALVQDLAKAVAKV

SMILES	IC50 (HeLa-MaTu; Homo sapiens, 96 h) [nM]	IC50 (DU145; Homo sapiens, DU-145, 96 h) [nM]	IC50 (HeLa-MaTu-ADR; Homo sapiens, 96 h) [nM]	IC50 (Caco-2; Homo sapiens, Caco-2, 96 h) [nM]	IC50 (MCF7; Homo sapiens, MCF7, 96 h) [nM]	IC50 (NCI-H460; Homo sapiens, NCI-H460, 96 h) [nM]	IC50 (CDK1/CycB) [nM]	IC50 (CDK2/CycE) [nM]	IC50 (HeLa-MaTu) [nM]	IC50 (DU145) [nM]	IC50 (HeLa-MaTu-ADR) [nM]	IC50 [1] [nM]	IC50 (Caco-2) [nM]	IC50 (NCI-H460) [nM]	IC50 (HeLa) [nM]	IC50 (MCF7) [nM]	IC50 (HCT116) [nM]	IC50 (SW480) [nM]
C[C@@H](Oc1nc(Nc2ccc(S(C)(=N)=O)cc2)ncc1C(F)(F)F)C(C)(C)O (mixture of isomers) [Example 3, (RS)—S-(4-{[4-{[(R)-2-Hydroxy-1,2-dimethylpropyl]oxy}-5-(trifluoromethyl)pyrimidin-2-yl]-amino}phenyl)-S-methylsulfoximide]	70	76	63	98	70	113	13	10	–	–	–	–	–	–	–	–	–	–
C[C@@H](Nc1nc(Nc2ccc(S(=N)(=O)C3CC3)cc2)ncc1C(F)(F)F)C(C)(C)O (mixture of isomers) [Example 5-SI-1, (RS)—S-Cyclopropyl-S-(4-{[4-{[(R)-2-hydroxy-1,2-dimethylpropyl]amino}-5-(trifluoromethyl)-pyrimidin-2-yl]amino}phenyl)sulfoximide]	–	–	–	–	33	–	25	8	22	107	63	70	112	70	–	–	–	–
C[C@@H](Nc1nc(Nc2ccc(S(=N)(=O)C3CC3)cc2)ncc1C(F)(F)F)C(C)(C)O (mixture of isomers) [Example 5-SI-2, (RS)—S-Cyclopropyl-S-(4-{[4-{[(R)-2-hydroxy-1,2-dimethylpropyl]amino}-5-(trifluoromethyl)-pyrimidin-2-yl]amino}phenyl)sulfoximide]	–	–	–	–	–	–	9	8	10	26	24	82	42	33	50	34	28	–
CCS(=N)(=O)c1ccc(Nc2ncc(C(F)(F)F)c(N[C@H](C)[C@@H](C)O)n2)cc1 (mixture of isomers) [Example 6-SI-2, (RS)—S-Ethyl-S-(4-{[4-{[(1R,2R)-2-hydroxy-1-methylpropyl]amino}-5-(trifluoromethyl)-pyrimidin-2-yl]amino}phenyl)sulfoximide]	10	197	18	–	–	–	5	5	–	–	–	71	26	24	32	26	24	–
C[C@@H](O)[C@@H](C)Oc1nc(Nc2ccc(S(C)(=N)=O)cc2)ncc1C(F)(F)F (single isomer, unassigned) [Example 2-SI-1]	12	–	–	–	–	–	5	6	–	–	–	84	–	–	–	–	–	–
CCS(=N)(=O)c1ccc(Nc2ncc(C(F)(F)F)c(N[C@H](C)C(C)(C)O)n2)cc1 (single isomer, unassigned) [Example 7-SI-2]	–	–	–	–	–	–	7	5	–	–	–	136	–	–	33	–	17	45
C[C@@H](O)[C@@H](C)Nc1nc(Nc2ccc(S(C)(=N)=O)cc2)ncc1C(F)(F)F (single isomer, unassigned) [Example 8-SI-1]	14	–	30	32	44	30	11	6	–	–	–	116	–	–	–	–	–	–
C[C@@H](O)[C@@H](C)Nc1nc(Nc2ccc(S(C)(=N)=O)cc2)ncc1C(F)(F)F (single isomer, unassigned) [Example 8-SI-2]	–	–	–	–	–	–	3	4	–	–	–	81	–	–	25	–	17	31
C[C@@H](Nc1nc(Nc2ccc(S(C)(=N)=O)cc2)ncc1C(F)(F)F)C(C)(C)O (single isomer, unassigned) [Example 9-SI-1]	20	–	–	–	–	–	4	5	–	–	–	158	–	–	–	–	–	–
